# How the values were obtained:
# [1] = test system: IL-4 stimulated pSTAT6 in CD3+ T cells; experiment: Assay 5: Inhibition of IL-4 stimulated pSTAT6 in CD3+ T cells; type: cell-based; conditions: T-cell; CD3+ T cells in human PBMCs, flow cytometry; read-out: pIC50, inhibition of IL-4 stimulated pSTAT6 (converted)
# Experimental: The potency of the test compound for inhibition of interleukin-4 (IL-4) stimulated STAT6 phosphorylation was measured in CD3-positive (CD3+) T cells in human peripheral blood mononuclear cells (PBMCs) isolated from human whole blood (Stanford Blood Center) using flow cytometry. Because IL-4 signals through JAK, this assay provides a measure of JAK cellular potency.
# CD3+ T cells were identified using a […] (PE) conjugated anti-CD3 antibody (Clone UCHT1, BD Biosciences), while an Alexa Fluor 647 conjugated anti-pSTAT6 antibody (pY641, Clone 18/P, BD Biosciences) was used to detect STAT6 phosphorylation.
# Human peripheral blood mononuclear cells (PBMC) were isolated from human whole blood of healthy donors as in Assays 3 and 4. […] After incubation, cells were washed twice in FACS buffer before being analyzed using a LSRII flow cytometer (BD Biosciences).
# To determine the inhibitory potency of the test compound in response to IL-4, the median fluorescent intensity (MFI) of pSTAT6 was measured in CD3+ T cells. IC50 values were determined from analysis of the inhibition curves of MFI vs compound concentration. Data are expressed as pIC50 (negative decadic logarithm IC50).
# JAK2 = biological target: T1, JAK2 (Homo sapiens, UniProt O60674); experiment: Assay 1: LanthaScreen biochemical JAK kinase assay, JAK2; conditions: converted from pIC50 by Cheng-Prusoff; ATP at Km 3 μM; read-out: JAK 2 pKi (converted)
# T1 construct: GST; purchased Life Technologies
# Experimental: A panel of four LanthaScreen JAK biochemical assays (JAK1, 2, 3 and Tyk2) were carried in a common kinase reaction buffer (50 mM HEPES, pH 7.5, 0.01% Brij-35, 10 mM MgCl2, and 1 mM EGTA). Recombinant GST-tagged JAK enzymes and a GFP-tagged STAT1 peptide substrate were obtained from Life Technologies.
# The serially diluted compound was pre-incubated with each of the four JAK enzymes and the substrate in white 384-well microplates (Corning) at ambient temperature for lh. ATP was subsequently added to initiate the kinase reactions in 10 μL total volume, with 1% DMSO. […] The plates were allowed to incubate at ambient temperature for lh before being read on the EnVision reader (Perkin Elmer). Emission ratio signals (520 nm/495 nm) were recorded and utilized to calculate the percent inhibition values based on DMSO and background controls.
# For dose-response analysis, percent inhibition data were plotted vs. compound concentrations, and IC50 values were determined from a 4-parameter robust fit model with the Prism software (GraphPad Software). Results were expressed as pIC50 (negative logarithm of IC50) and subsequently converted to pK1 (negative logarithm of dissociation constant, Ki) using the Cheng-Prusoff equation.
# [2] = test system: IL-27 induced CXCL9 secretion in EpiAirway tissue cultures; experiment: Assay 15: IL-27 induced CXCL9 in human 3D airway cultures; type: cell-based; conditions: 192 h, Day 8, average from 3 or 4 donors, read-out: % inhibition of IL-27 induced CXCL9 secretion (±STDV)
# Experimental: EpiAirway tissue cultures were obtained from Mattek (AIR-100). Cultures were derived from asthmatic donors. In a cell culture insert, human derived tracheal/bronchial epithelial cells were grown and differentiated on a porous membrane support, allowing an air-liquid interface with warmed culture medium below the cells and a gaseous test atmosphere above. Tissues were cultured in maintenance media (Mattek, AIR-100-MM) in a 37° C., 5% CO2 humidified incubator. Four donors were tested. On Day 0, tissue cultures were treated with test compounds at 10 μM, 1 μM and/or 0.1 μM. Compounds were diluted in dimethyl sulfoxide (DMSO, Sigma) to a final concentration of 0.1%. DMSO at 0.1% was used as a vehicle control. Test compounds were incubated with cultures for 1 hour at 37° C., 5% CO2, followed by the addition of pre-warmed media containing IFNγ (R&D Systems) or IL-27 (R&D Systems) at a final concentration at 100 ng/ml. Tissue cultures were maintained for 8 days. Media was replaced every 2 days with fresh media containing compounds and IFNγ or IL-27. On Day 8, tissue cultures and supernatants were collected for analysis. Supernatant samples were assayed for CXCL10 (IP-10) and CXCL9 (MIG) using luminex analysis (EMD Millipore). Data is expressed as % Inhibition +/−standard deviation (±STDV). Percent inhibition was determined by compound inhibitory potency against IFNγ or IL-27 induced CXCL10 or CXCL9 secretion compared to vehicle treated cells. Data is the average from 3 or 4 donors. Compound 1 was able to inhibit IFNγ induced CXCL10 secretion by 99%±2.0 (at 10 μM), 71%±19 (at […]) and 17%±12 (at 0.1 μM) when compared to vehicle control. Compound 1 was able to inhibit IFNγ induced CXCL9 secretion by 100%±0.3 (at 10 μM), 99%±0.9 (at 1 μM) and 74%±17 (at 0.1 μM) when compared to vehicle. […] Compound 1 was able to inhibit IL-27 induced CXCL9 secretion by 100%±0 (at 10 μM), 95%±3.7 (at 1 μM) and 75%±3.5 (at 0.1 μM) when compared to vehicle control.
# T1 sequence (O60674 whole entry): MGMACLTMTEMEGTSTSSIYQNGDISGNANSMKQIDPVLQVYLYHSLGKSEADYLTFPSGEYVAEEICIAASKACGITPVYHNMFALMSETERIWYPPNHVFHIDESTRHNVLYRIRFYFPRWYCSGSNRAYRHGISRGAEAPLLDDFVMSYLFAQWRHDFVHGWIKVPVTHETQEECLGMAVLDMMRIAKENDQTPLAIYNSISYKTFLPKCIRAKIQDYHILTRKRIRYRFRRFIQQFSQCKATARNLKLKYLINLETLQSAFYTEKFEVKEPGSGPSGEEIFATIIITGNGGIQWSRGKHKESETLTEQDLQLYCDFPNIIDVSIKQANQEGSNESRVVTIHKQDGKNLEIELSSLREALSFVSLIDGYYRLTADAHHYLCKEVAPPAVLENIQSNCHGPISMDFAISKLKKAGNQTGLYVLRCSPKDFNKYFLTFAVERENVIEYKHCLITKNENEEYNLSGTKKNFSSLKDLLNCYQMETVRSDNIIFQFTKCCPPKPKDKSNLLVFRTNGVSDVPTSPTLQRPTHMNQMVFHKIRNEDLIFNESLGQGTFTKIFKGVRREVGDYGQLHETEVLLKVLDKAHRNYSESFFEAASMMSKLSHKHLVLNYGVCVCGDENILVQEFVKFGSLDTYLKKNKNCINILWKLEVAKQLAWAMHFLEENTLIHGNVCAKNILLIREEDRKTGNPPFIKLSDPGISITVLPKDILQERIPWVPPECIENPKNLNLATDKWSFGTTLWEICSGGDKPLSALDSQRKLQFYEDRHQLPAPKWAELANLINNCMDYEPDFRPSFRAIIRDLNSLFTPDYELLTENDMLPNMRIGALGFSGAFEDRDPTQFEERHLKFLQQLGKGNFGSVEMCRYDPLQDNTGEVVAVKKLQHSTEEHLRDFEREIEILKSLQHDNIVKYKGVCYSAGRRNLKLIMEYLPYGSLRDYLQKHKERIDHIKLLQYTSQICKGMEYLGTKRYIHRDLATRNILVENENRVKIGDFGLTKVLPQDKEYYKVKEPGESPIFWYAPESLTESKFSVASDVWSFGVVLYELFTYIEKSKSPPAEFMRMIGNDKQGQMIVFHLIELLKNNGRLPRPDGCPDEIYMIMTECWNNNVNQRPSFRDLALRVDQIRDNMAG
smiles,measurement,setting,value
"CCc1cc(O)c(F)cc1-c1ccc2c(-c3nc4c([nH]3)CCN(C3CCN(C)CC3)C4)n[nH]c2c1 [Compound 1, 5-ethyl-2-fluoro-4-(3-(5-(1-methylpiperidin-4-yl)-4,5,6,7-tetrahydro-1H-imidazo[4,5-c]pyridin-2-yl)-1H-indazol-6-yl)phenol]",IC50,[1],7.94 nM
same,Ki,JAK2,0.0158 nM
same,inhibition at 0.1 µM,[2]; at 0.1 μM,75%
same,inhibition at 1 µM,[2]; at 1 μM,95%
same,inhibition at 10 µM,[2]; at 10 μM,100%

# Reference: patent US10251874B2, “Crystalline forms of a JAK inhibitor compound” (THERAVANCE BIOPHARMA R&D IP, LLC, priority 2017, dated 2019)
